Experimental data: publication PMC9866191, “Novel 9-Benzylaminoacridine Derivatives as Dual Inhibitors of Phosphodiesterase 5 and Topoisomerase II for the Treatment of Colon Cancer” (Molecules, 2023)

Experiments:
Test in all cases: NCI-60 one-dose screen
Format in all cases: cell-based
[1] = system: A498; conditions: Homo sapiens; A498, Renal Cancer panel; single dose 10^−5 M; read-out: Growth inhibition %
[2] = system: A549/ATCC; conditions: Homo sapiens, Non-small cell lung panel, single dose 10^−5 M, read-out: Growth inhibition %
[3] = system: HCC-2998; conditions: Homo sapiens; HCC-2998, Colon Cancer panel; single dose 10^−5 M; read-out: Growth inhibition %
[4] = system: HCT-116; conditions: Homo sapiens, read-out: Growth inhibition %
[5] = system: HOP-62; conditions: Homo sapiens; HOP-62, Non-small cell lung panel; single dose 10^−5 M; read-out: Growth inhibition %
[6] = system: HOP-92; conditions: Homo sapiens; HOP-92, Non-small cell lung panel; single dose 10^−5 M; read-out: Growth inhibition %
[7] = system: M14; conditions: Homo sapiens; M14, Melanoma panel; single dose 10^−5 M; read-out: Growth inhibition %
[8] = system: MALME-3M; conditions: Homo sapiens, Melanoma panel, single dose 10^−5 M, read-out: Growth inhibition %
[9] = system: MCF7; conditions: Homo sapiens; MCF7, Breast Cancer panel; single dose 10^−5 M; read-out: Growth inhibition %
[10] = system: MDA-MB-468; conditions: Homo sapiens; MDA-MB-468, Breast Cancer panel; single dose 10^−5 M; read-out: Growth inhibition %
[11] = system: NCI-H23; conditions: Homo sapiens; NCI-H23, Non-small cell lung panel; single dose 10^−5 M; read-out: Growth inhibition %
[12] = system: NCI-H322M; conditions: Homo sapiens, Non-small cell lung panel, single dose 10^−5 M, read-out: Growth inhibition %
[13] = system: NCI-H460; conditions: Homo sapiens; NCI-H460, Non-small cell lung panel; single dose 10^−5 M; read-out: Growth inhibition %
[14] = system: NCI-H522; conditions: Homo sapiens; NCI-H522, Non-small cell lung panel; single dose 10^−5 M; read-out: Growth inhibition %
[15] = system: NCI/ADR-RES; conditions: Homo sapiens, Ovarian Cancer panel, single dose 10^−5 M, read-out: Growth inhibition %
[16] = system: OVCAR-4; conditions: Homo sapiens; OVCAR-4, Ovarian Cancer panel; single dose 10^−5 M; read-out: Growth inhibition %
[17] = system: OVCAR-5; conditions: Homo sapiens; OVCAR-5, Ovarian Cancer panel; single dose 10^−5 M; read-out: Growth inhibition %
[18] = system: PC-3; conditions: Homo sapiens; PC-3, Prostate Cancer panel; single dose 10^−5 M; read-out: Growth inhibition %
[19] = system: RPMI-8226; conditions: Homo sapiens; RPMI-8226, Leukemia panel; single dose 10^−5 M; read-out: Growth inhibition %
[20] = system: RXF 393; conditions: Homo sapiens; RXF 393, Renal Cancer panel; single dose 10^−5 M; read-out: Growth inhibition %
[21] = system: SF-295; conditions: Homo sapiens; SF-295, CNS Cancer panel; single dose 10^−5 M; read-out: Growth inhibition %
[22] = system: SF-539; conditions: Homo sapiens; SF-539, CNS Cancer panel; single dose 10^−5 M; read-out: Growth inhibition %
[23] = system: SK-MEL-2; conditions: Homo sapiens; SK-MEL-2, Melanoma panel; single dose 10^−5 M; read-out: Growth inhibition %
[24] = system: SK-OV-3; conditions: Homo sapiens; SK-OV-3, Ovarian Cancer panel; single dose 10^−5 M; read-out: Growth inhibition %
[25] = system: SN12C; conditions: Homo sapiens, Renal Cancer panel, single dose 10^−5 M, read-out: Growth inhibition %
[26] = system: SNB-19; conditions: Homo sapiens; SNB-19, CNS Cancer panel; single dose 10^−5 M; read-out: Growth inhibition %
[27] = system: T-47D; conditions: Homo sapiens, T47D, Breast Cancer panel, single dose 10^−5 M, read-out: Growth inhibition %
[28] = system: TK-10; conditions: Homo sapiens; TK-10, Renal Cancer panel; single dose 10^−5 M; read-out: Growth inhibition %
[29] = system: U251; conditions: Homo sapiens, U-251; U251, CNS Cancer panel; single dose 10^−5 M; read-out: Growth inhibition %
[30] = system: UACC-257; conditions: Homo sapiens; UACC-257, Melanoma panel; single dose 10^−5 M; read-out: Growth inhibition %
[31] = system: UACC-62; conditions: Homo sapiens; UACC-62, Melanoma panel; single dose 10^−5 M; read-out: Growth inhibition %
[32] = system: LOX IMVI; conditions: Homo sapiens, Melanoma panel, single dose 10^−5 M, read-out: Growth inhibition %

## Fc1ccc(CNc2c3ccccc3nc3ccccc23)cc1 [Compound 10, Acridin-9-yl-(4-fluorobenzyl)-amine]
[1]
  inhibition at 10 µM: 102%
[2]
  inhibition at 10 µM: 76.3%
[3]
  inhibition at 10 µM: 81.7%
[4]
  inhibition at 10 µM: 87.5%
[5]
  inhibition at 10 µM: 57%
[6]
  inhibition at 10 µM: 82.8%
[7]
  inhibition at 10 µM: 65.7%
[8]
  inhibition at 10 µM: 74.3%
[9]
  inhibition at 10 µM: 92.9%
[10]
  inhibition at 10 µM: 88.5%
[11]
  inhibition at 10 µM: 68.3%
[12]
  inhibition at 10 µM: 61.5%
[13]
  inhibition at 10 µM: 91.2%
[14]
  inhibition at 10 µM: 47.6%
[15]
  inhibition at 10 µM: 70.3%
[16]
  inhibition at 10 µM: 66.8%
[17]
  inhibition at 10 µM: 61.5%
[18]
  inhibition at 10 µM: 73.1%
[19]
  inhibition at 10 µM: 100%
[20]
  inhibition at 10 µM: 99.8%
[21]
  inhibition at 10 µM: 72.4%
[22]
  inhibition at 10 µM: 86.9%
[23]
  inhibition at 10 µM: 56.2%
[24]
  inhibition at 10 µM: 60%
[25]
  inhibition at 10 µM: 74.3%
[26]
  inhibition at 10 µM: 67.6%
[27]
  inhibition at 10 µM: 68.9%
[28]
  inhibition at 10 µM: 69.8%
[29]
  inhibition at 10 µM: 74.1%
[30]
  inhibition at 10 µM: 64%
[31]
  inhibition at 10 µM: 49.8%
[32]
  inhibition at 10 µM: 90.6%

## Clc1ccc(CNc2c3ccccc3nc3ccccc23)cc1 [Compound 13, Acridin-9-yl-(4-chlorobenzyl)-amine]
[1]
  inhibition at 10 µM: 79.2%
[2]
  inhibition at 10 µM: 60.7%
[3]
  inhibition at 10 µM: 110%
[4]
  inhibition at 10 µM: 84.3%
[5]
  inhibition at 10 µM: 47%
[6]
  inhibition at 10 µM: 74.5%
[7]
  inhibition at 10 µM: 46.7%
[8]
  inhibition at 10 µM: 60.4%
[9]
  inhibition at 10 µM: 84%
[10]
  inhibition at 10 µM: 70.4%
[11]
  inhibition at 10 µM: 47%
[12]
  inhibition at 10 µM: 45.9%
[13]
  inhibition at 10 µM: 83.6%
[14]
  inhibition at 10 µM: 33.5%
[15]
  inhibition at 10 µM: 63.4%
[16]
  inhibition at 10 µM: 66.9%
[17]
  inhibition at 10 µM: 49.5%
[18]
  inhibition at 10 µM: 61.3%
[19]
  inhibition at 10 µM: 92%
[20]
  inhibition at 10 µM: 70.3%
[21]
  inhibition at 10 µM: 40.4%
[22]
  inhibition at 10 µM: 69.7%
[23]
  inhibition at 10 µM: 27.6%
[24]
  inhibition at 10 µM: 40%
[25]
  inhibition at 10 µM: 60.9%
[26]
  inhibition at 10 µM: 56.9%
[27]
  inhibition at 10 µM: 56.6%
[28]
  inhibition at 10 µM: 50.3%
[29]
  inhibition at 10 µM: 53.8%
[30]
  inhibition at 10 µM: 23.9%
[31]
  inhibition at 10 µM: 29.3%
[32]
  inhibition at 10 µM: 77%

## COc1cccc(CNc2c3ccccc3nc3ccccc23)c1OC [Compound 16, Acridin-9-yl-(2,3-dimethoxybenzyl)-amine]
[1]
  inhibition at 10 µM: 104%
[2]
  inhibition at 10 µM: 69.7%
[3]
  inhibition at 10 µM: 61.7%
[4]
  inhibition at 10 µM: 88.2%
[5]
  inhibition at 10 µM: 48.8%
[6]
  inhibition at 10 µM: 102%
[7]
  inhibition at 10 µM: 65.5%
[8]
  inhibition at 10 µM: 49.4%
[9]
  inhibition at 10 µM: 89.9%
[10]
  inhibition at 10 µM: 98.9%
[11]
  inhibition at 10 µM: 67.6%
[12]
  inhibition at 10 µM: 58.4%
[13]
  inhibition at 10 µM: 88.4%
[14]
  inhibition at 10 µM: 59.9%
[15]
  inhibition at 10 µM: 66.8%
[16]
  inhibition at 10 µM: 63.4%
[17]
  inhibition at 10 µM: 57%
[18]
  inhibition at 10 µM: 62.4%
[19]
  inhibition at 10 µM: 83%
[20]
  inhibition at 10 µM: 70.1%
[21]
  inhibition at 10 µM: 67%
[22]
  inhibition at 10 µM: 81.1%
[23]
  inhibition at 10 µM: 20.8%
[24]
  inhibition at 10 µM: 34%
[25]
  inhibition at 10 µM: 69.1%
[26]
  inhibition at 10 µM: 64.5%
[27]
  inhibition at 10 µM: 52.5%
[28]
  inhibition at 10 µM: 40.5%
[29]
  inhibition at 10 µM: 65.5%
[30]
  inhibition at 10 µM: 45.2%
[31]
  inhibition at 10 µM: 48.7%
[32]
  inhibition at 10 µM: 87%

## COc1ccc(CNc2c3ccccc3nc3ccccc23)c(OC)c1 [Compound 17, Acridin-9-yl-(2,4-dimethoxybenzyl)-amine]
[1]
  inhibition at 10 µM: 111%
[2]
  inhibition at 10 µM: 64.8%
[3]
  inhibition at 10 µM: 64.4%
[4]
  inhibition at 10 µM: 87.2%
[5]
  inhibition at 10 µM: 52.8%
[6]
  inhibition at 10 µM: 114%
[7]
  inhibition at 10 µM: 56.2%
[8]
  inhibition at 10 µM: 33%
[9]
  inhibition at 10 µM: 85.5%
[10]
  inhibition at 10 µM: 95.2%
[11]
  inhibition at 10 µM: 65.1%
[12]
  inhibition at 10 µM: 60%
[13]
  inhibition at 10 µM: 83.3%
[14]
  inhibition at 10 µM: 59.4%
[15]
  inhibition at 10 µM: 64.4%
[16]
  inhibition at 10 µM: 60.3%
[17]
  inhibition at 10 µM: 49.7%
[18]
  inhibition at 10 µM: 52.9%
[19]
  inhibition at 10 µM: 65.1%
[20]
  inhibition at 10 µM: 66.6%
[21]
  inhibition at 10 µM: 63.7%
[22]
  inhibition at 10 µM: 85.4%
[23]
  inhibition at 10 µM: 5.98%
[24]
  inhibition at 10 µM: 36.7%
[25]
  inhibition at 10 µM: 69%
[26]
  inhibition at 10 µM: 66.5%
[27]
  inhibition at 10 µM: 47.1%
[28]
  inhibition at 10 µM: 45.6%
[29]
  inhibition at 10 µM: 58.2%
[30]
  inhibition at 10 µM: 25.4%
[31]
  inhibition at 10 µM: 45.5%
[32]
  inhibition at 10 µM: 82.3%
